How the values were obtained:
[1] = In vivo biodistribution study in normal mice; conditions: for % Dose/Gram, Blood / % Dose/Gram, Bone / % Dose/Gram, Brain / % Dose/Gram, Heart / % Dose/Gram, Kidney / % Dose/Gram, Liver / % Dose/Gram, Lung / % Dose/Gram, Muscle / % Dose/Gram, Pancreas / % Dose/Gram, Skin / % Dose/Gram, Spleen: normal ICR mice, n = 5
Method: To test the [^18F]-4F-glutamine isomers as a novel tumor PET imaging agents, we tested the [^18F]-4F-glutamine (2S,4R) (1) in normal ICR mice weighing 20-25 grams. 5 mice per group were used for the biodistrubution study. The mice were put under anesthesia with the use of isoflurane and 0.15 mL saline solution containing 25 μCi of each isomer was injected via the lateral tail vein. The mice were sacrificed at 2, 30, 60, 120 and 240 minutes post-injection by cardiac excision while under isoflurane anesthesia. The organs of interest were removed, weighed and the radioactivity was counted with a gamma counter (Packard Cobra). The percent dose per gram was calculated by a comparison of the tissue activity counts to counts of 1.0% of the initial dose. The initial dose consists of 100 times diluted aliquots of the injected material measured at the same rate.

[2] = tested on: M/tomND spontaneous human mammary tumors; assay: Dynamic small animal PET (A-PET) imaging; format: in vivo, mice; conditions: ~300 μCi via lateral tail vein, 120 minutes imaging, myc gene up-regulated
Method: Dynamic small animal PET (A-PET) imaging studies were conducted with 4-[^18F]F-glutamine (2S,4R) isomer. All scans were performed on a dedicated animal PET scanner (Mosaic by Phillips) (Surti, 2005). Transgenic mice bearing M/tomND spontaneous human mammary tumors were used in this study. There are many advantages to using this transgenic mouse model. A doxycycline sensitive promoter genetically engineers these mice to express the myc gene. These tumors spontaneously arise vs. traditional xenograph tumors. […] When doxycycline is removed, the myc gene is down regulated. This model was chosen because these compounds will allow a direct correlation between true glutamine uptake and the level of myc gene expression.
Glutamine uptake within the M/tomND tumor was examined by injecting ˜300 μCi of the [^18F]-4F-glutamine (2S,4R) isomer via the lateral tail vein. Imaging commenced immediately after the injection of the tracer and continued for a time period of 120 minutes.

9 L cells = assay: In vitro inhibition studies of 4-[18F]F-glutamine (2S,4R) uptake; format: cell-based, rat; conditions: 30 min, 37° C.
Method: (§1) Because of this observation, we decided only to further investigate the (2S,4R) isomer of [^18F]4-FGln, 1. In vitro cell uptake inhibition studies were conducted in 9 L cells in order to test the specificity of [^18F]4-FGln (2S,4R), 1. Cold L-glutamine and L-serine served as the positive control inhibitors for the glutamine transporters. L-glutamine inhibits system N transporter and L-serine inhibits the ASC transporter. Three different concentrations were tested for each inhibitor ranging from 0.5 mM to 5 mM. After 30 minutes of co-incubation of L-glutamine and [^18F] […] Cold MeAIB served as the negative control, which inhibits system A transporter.
(§2) The cellular uptake of each of the four 4-[^18F]F-glutamine isomers (2S,4R), (2S,4S), (2R,4S) and (2R,4R) were studied in (9 L) rat brain gliosarcoma cells. L-[3,4-^3H(N)]-glutamine, >97%, 250 μCi (9.25 MBq), was purchased from Perkin Elmer and was used as a control for all of the cellular uptake experiments conducted. […] All four of the 4-[^18F]F-glutamine isomers and the L-[3,4-^3H(N)]-glutamine was dissolved in PBS solution and was added to each well (500,000 cpm/mL/well) and incubated at 37° C. for 5, 30, 60, 120 min. At the end of the incubation period, the wells were aspirated and then the residual cells were washed 3 times with 1 mL ice cold PBS without Ca^2+ and Mg^2+. After washing with cold PBS, 350 μL 1M NaOH was used to lyse the cells. The lysed cells were collected onto filter paper. The filter papers were placed in scintillation vials and counting fluid was added (7 mL ecolite+) and the vials were then counted with a beta counter 18-24 h later. For dual-isotope studies using 4-[^18F]F-glutamine isomers and L-[3,4-^3H(N)]-glutamine, the vials were counted first using a gamma counter to obtain ^18F counts. The beta counts were then obtained one day later after the ^18F was fully decayed. 100 μL of the cell lysate was used for the determination of the protein concentration by Lowry method.
To test the specificity of the 4-[^18F]F-glutamine (2S,4R) isomer, inhibition studies were conducted using 9 L cells. The tracer was incubated at 37° C. for 30 min. The cells were processed as previously described as above. Cold L-glutamine and L-Serine served as the positive control inhibitors for the glutamine transporters. L-glutamine inhibits system N transporter and L-Serine inhibits the ASC transporter. Cold MeAIB served as the negative control, which inhibits system A transporter. Three different concentrations were tested for each inhibitor ranging from 0.5 mM to 5 mM.

9 L tumor cell line = assay: In vitro cell uptake studies of the four 4-[18F]F-glutamine isomers; format: cell-based, rat; conditions: 18F-labeled isomer, 37° C., 5-120 min, compared to [3H]glutamine
Method: Cell uptake of four possible isomers was evaluated using 9 L tumor cell line. The cell uptake results (% dose/100 μg protein) were compared to that of [^3H] glutamine.
as §1, §2

## NC(=O)[C@H]([18F])C[C@H](N)C(=O)O [Compound 1, (2S,4R)-2,5-Diamino-4-fluoro-5-oxopentanoic acid]
[1]; 2 min post-injection, iv
  % Dose/Gram, Blood: 6.19 ± 0.83 % Dose/Gram
  % Dose/Gram, Bone: 3.93 ± 0.37 % Dose/Gram
  % Dose/Gram, Brain: 0.54 ± 0.05 % Dose/Gram
  % Dose/Gram, Heart: 4.31 ± 0.32 % Dose/Gram
  % Dose/Gram, Kidney: 16.1 ± 1.03 % Dose/Gram
  % Dose/Gram, Liver: 6.92 ± 0.92 % Dose/Gram
  % Dose/Gram, Lung: 7.15 ± 0.76 % Dose/Gram
  % Dose/Gram, Muscle: 1.62 ± 0.10 % Dose/Gram
  % Dose/Gram, Pancreas: 17.2 ± 1.00 % Dose/Gram
  % Dose/Gram, Skin: 2.72 ± 0.05 % Dose/Gram
  % Dose/Gram, Spleen: 7.51 ± 0.44 % Dose/Gram
[1]; 30 min post-injection, iv
  % Dose/Gram, Blood: 2.72 ± 0.17 % Dose/Gram
  % Dose/Gram, Bone: 5.64 ± 0.69 % Dose/Gram
  % Dose/Gram, Brain: 0.51 ± 0.05 % Dose/Gram
  % Dose/Gram, Heart: 3.16 ± 0.25 % Dose/Gram
  % Dose/Gram, Kidney: 9.93 ± 0.52 % Dose/Gram
  % Dose/Gram, Liver: 6.23 ± 0.50 % Dose/Gram
  % Dose/Gram, Lung: 5.36 ± 0.49 % Dose/Gram
  % Dose/Gram, Muscle: 2.48 ± 0.16 % Dose/Gram
  % Dose/Gram, Pancreas: 19.7 ± 2.16 % Dose/Gram
  % Dose/Gram, Skin: 4.01 ± 0.24 % Dose/Gram
  % Dose/Gram, Spleen: 5.39 ± 0.72 % Dose/Gram
[1]; 60 min post-injection, iv
  % Dose/Gram, Blood: 2.05 ± 0.16 % Dose/Gram
  % Dose/Gram, Bone: 7.93 ± 1.02 % Dose/Gram
  % Dose/Gram, Brain: 0.53 ± 0.07 % Dose/Gram
  % Dose/Gram, Heart: 2.86 ± 0.47 % Dose/Gram
  % Dose/Gram, Kidney: 7.60 ± 0.84 % Dose/Gram
  % Dose/Gram, Liver: 5.70 ± 0.62 % Dose/Gram
  % Dose/Gram, Lung: 4.37 ± 0.28 % Dose/Gram
  % Dose/Gram, Muscle: 2.86 ± 0.34 % Dose/Gram
  % Dose/Gram, Pancreas: 17.5 ± 2.28 % Dose/Gram
  % Dose/Gram, Skin: 2.94 ± 0.68 % Dose/Gram
  % Dose/Gram, Spleen: 4.22 ± 0.38 % Dose/Gram
[1]; 120 min post-injection, iv
  % Dose/Gram, Blood: 0.83 ± 0.12 % Dose/Gram
  % Dose/Gram, Bone: 14.4 ± 1.31 % Dose/Gram
  % Dose/Gram, Brain: 0.57 ± 0.05 % Dose/Gram
  % Dose/Gram, Heart: 1.86 ± 0.24 % Dose/Gram
  % Dose/Gram, Kidney: 2.15 ± 0.34 % Dose/Gram
  % Dose/Gram, Liver: 2.46 ± 0.26 % Dose/Gram
  % Dose/Gram, Lung: 1.69 ± 0.10 % Dose/Gram
  % Dose/Gram, Muscle: 1.81 ± 0.26 % Dose/Gram
  % Dose/Gram, Pancreas: 9.57 ± 1.22 % Dose/Gram
  % Dose/Gram, Skin: 2.17 ± 0.16 % Dose/Gram
  % Dose/Gram, Spleen: 2.02 ± 0.16 % Dose/Gram
[1]; 240 min post-injection, iv
  % Dose/Gram, Blood: 0.48 ± 0.06 % Dose/Gram
  % Dose/Gram, Bone: 19.4 ± 0.50 % Dose/Gram
  % Dose/Gram, Brain: 0.45 ± 0.06 % Dose/Gram
  % Dose/Gram, Heart: 1.24 ± 0.19 % Dose/Gram
  % Dose/Gram, Kidney: 1.25 ± 0.21 % Dose/Gram
  % Dose/Gram, Liver: 1.30 ± 0.18 % Dose/Gram
  % Dose/Gram, Lung: 1.03 ± 0.15 % Dose/Gram
  % Dose/Gram, Muscle: 0.94 ± 0.15 % Dose/Gram
  % Dose/Gram, Pancreas: 5.92 ± 0.87 % Dose/Gram
  % Dose/Gram, Skin: 1.25 ± 0.13 % Dose/Gram
  % Dose/Gram, Spleen: 1.15 ± 0.14 % Dose/Gram
[1]; after 30 min, normal mice, iv
  pancreas to liver ratio: 4 to 1
[1]; inferred from increasing bone uptake at later time points
  in vivo de-fluorination (in words): likely that there was in vivo de-fluorination
[2]
  tumor uptake in PET images (in words): taken up in the tumor sites
9 L cells
  uptake of [18F]4-FGln (2S,4R) without inhibitor (control): 3.56 % dose/100 ug protein
9 L tumor cell line
  cell uptake in 9 L cells (in words): highest uptake
